Reference: US20160318987A1 (MEDIMMUNE LIMITED, priority 2013, published 2016)
Where two headings read alike, the source gives them in different places. Where a SMILES comes first, the peptide text is derived from it. Where no end group is shown, it is not given here. Side-chain parts run from the residue outwards. [ ]: non-standard residue; d: D form. αMeF = C[C@](N)(Cc1ccccc1)C(=O)O; Nle = CCCC[C@H](N)C(=O)O; Aib = CC(C)(N)C(=O)O; Mal = maleimide

Columns and labels:
hGIP-R = biological target: T1, hGIP-R (Homo sapiens, UniProt P48546); assay: cAMP functional assay, cells expressing human GIP receptor (primary assay); type: cell-based; settings: n = 2
T1 construct: expressed in transfected cells
T1 sequence (P48546 22-466): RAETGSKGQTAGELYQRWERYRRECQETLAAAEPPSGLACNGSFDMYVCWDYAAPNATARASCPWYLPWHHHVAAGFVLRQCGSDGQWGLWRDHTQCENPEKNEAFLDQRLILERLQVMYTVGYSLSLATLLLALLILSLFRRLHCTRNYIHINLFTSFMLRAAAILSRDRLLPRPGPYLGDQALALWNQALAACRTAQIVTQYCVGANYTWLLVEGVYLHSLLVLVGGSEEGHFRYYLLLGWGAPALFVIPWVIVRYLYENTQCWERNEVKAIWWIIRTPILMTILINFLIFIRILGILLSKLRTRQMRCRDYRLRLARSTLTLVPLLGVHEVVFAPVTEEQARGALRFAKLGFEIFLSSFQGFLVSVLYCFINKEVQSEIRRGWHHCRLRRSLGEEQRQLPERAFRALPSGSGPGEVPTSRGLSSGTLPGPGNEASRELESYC
Procedure: (§1) The biological activities/receptor potencies of the synthetic GLP-1 peptides described herein are suitably tested for biological activity, e.g., stimulation of one or more cellular receptor responses. Stable cell lines expressing human, mouse, rat, or dog GLP-1 receptor (GLP-1R), glucagon receptor (GCGR) or glucose-dependent insulinotropic peptide (gastric inhibitory polypeptide) receptor (GIPR) are generated in HEK293 cells or CHO cells by standard methods.
(§2) cAMP assays were performed using “assay buffer”: Assay Buffer: 0.1% BSA (Sigma #A3059) in HBSS (Sigma #H8264) with 25 mM HEPES, pH 7.4 and containing 0.5 mM IBMX (Sigma #17018).
(§3) Low protein binding 384-well plates (Greiner #781280) are used to perform eleven 1 in 5 serial dilutions of test samples which are made in assay buffer. All sample dilutions are made in duplicate.
(§4) A frozen cryo-vial of cells expressing the receptor of interest is thawed rapidly in a water-bath, transferred to pre-warmed assay buffer and spun at 240× g for 5 minutes. Cells are re-suspended in assay buffer at a batch-dependent optimized concentration (e.g. hGCGR cells at 2×10^5 cells/ml, hGLP-1R and hGIPR cells at 1×10^5 cells /ml).
(§5) From the dilution plate, a 5 μL replica is stamped onto a black shallow-well u-bottom 384-well plate (Corning #3676). To this, 5 μL cell suspension is added and the plates incubated at room temperature for 30 minutes.
(§6) cAMP levels are measured using a commercially available cAMP dynamic 2 HTRF kit (Cisbio, Cat #62AM4PEJ), following the two step protocol as per manufacturer's recommendations. In brief; anti-cAMP cryptate (donor fluorophore) and cAMP-d2 (acceptor fluorophore) are made up separately by diluting each 1/20 in conjugate & lysis buffer provided in the kit. 5 μL anti-cAMP cryptate is added to all wells of the assay plate, and 5 μL cAMP-d2 is added to all wells except non-specific binding (NSB) wells, to which conjugate and lysis buffer are added. Plates are incubated at room temperature for one hour and then read on an Envision (Perkin Elmer) using excitation wavelength of 320 nm and emission wavelengths of 620 nm & 665 nm. EC50 values of the synthetic peptides determined in cAMP assays are then determined.

hGLP-1R = biological target: T2, hGLP-1R (Homo sapiens, UniProt P43220); assay: cAMP functional assay, cells expressing human GLP-1 receptor (primary assay); type: cell-based; settings: n = 2
T2 construct: expressed in transfected cells
Procedure: as §1, §2, §3, §4, §5, §6

T2 sequence (P43220 24-463): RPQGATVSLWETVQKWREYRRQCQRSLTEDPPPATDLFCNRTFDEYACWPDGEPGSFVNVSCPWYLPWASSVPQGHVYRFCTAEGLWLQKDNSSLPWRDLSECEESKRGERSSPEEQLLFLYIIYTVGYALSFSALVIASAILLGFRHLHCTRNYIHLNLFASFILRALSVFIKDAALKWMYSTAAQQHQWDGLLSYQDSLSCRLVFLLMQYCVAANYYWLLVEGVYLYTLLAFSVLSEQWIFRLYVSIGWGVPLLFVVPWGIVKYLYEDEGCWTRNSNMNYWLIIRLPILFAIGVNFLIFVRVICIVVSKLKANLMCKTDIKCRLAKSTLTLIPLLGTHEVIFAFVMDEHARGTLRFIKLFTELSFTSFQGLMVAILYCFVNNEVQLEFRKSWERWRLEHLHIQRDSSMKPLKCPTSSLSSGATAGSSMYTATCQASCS

Compound | EC50 (hGIP-R) [nM] | EC50 (hGLP-1R) [nM] | EC50 (hGLP-1R; read-out: Primary assay EC50 (n = 2) hGLP-1R) [nM]
CC[C@H](C)[C@H](NC(=O)[C@](C)(Cc1ccccc1)NC(=O)[C@H](CCC(=O)O)NC(=O)[C@H](CCCCN)NC(=O)[C@H](C)NC(=O)[C@H](C)NC(=O)[C@H](CCC(N)=O)NC(=O)CNC(=O)[C@H](CCC(=O)O)NC(=O)[C@H](CC(C)C)NC(=O)[C@](C)(Cc1ccccc1)NC(=O)[C@H](CO)NC(=O)[C@H](CO)NC(=O)[C@@H](NC(=O)[C@H](CC(=O)O)NC(=O)[C@H](CO)NC(=O)[C@@H](NC(=O)[C@](C)(Cc1ccccc1)NC(=O)[C@@H](NC(=O)CNC(=O)[C@H](CCC(=O)O)NC(=O)C(C)(C)NC(=O)[C@@H](N)Cc1c[nH]cn1)[C@@H](C)O)[C@@H](C)O)C(C)C)C(=O)N[C@@H](C)C(=O)N[C@@](C)(Cc1ccccc1)C(=O)N[C@@H](CC(C)C)C(=O)N[C@H](C(=O)N[C@@H](CCCCN)C(=O)NCC(=O)N[C@@H](CCCNC(=N)N)C(N)=O)C(C)C [SEQ ID NO: 19, H-(Aib)^2-EGT^5-(α-MeF)^6-TSDV^10 SS-(α-MeF)^13-LE^15 GQAAK^20 E-(α-MeF)^22-IA-(α-MeF)^25 LVKGR^30] (H-H[Aib]EGT[αMeF]TSDVSS[αMeF]LEGQAAKE[αMeF]IA[αMeF]LVKGR-NH2) | 102 | 0.026 | 
CC[C@H](C)[C@H](NC(=O)[C@H](Cc1ccccc1)NC(=O)[C@H](CCC(=O)O)NC(=O)[C@H](CCCCN)NC(=O)[C@H](C)NC(=O)[C@H](C)NC(=O)[C@H](CCC(N)=O)NC(=O)CNC(=O)[C@H](CCC(=O)O)NC(=O)[C@H](CC(C)C)NC(=O)[C@H](Cc1ccc(O)cc1)NC(=O)[C@H](CO)NC(=O)[C@H](CO)NC(=O)[C@@H](NC(=O)[C@H](CC(=O)O)NC(=O)[C@H](CO)NC(=O)[C@@H](NC(=O)[C@H](Cc1ccccc1)NC(=O)[C@H](CO)NC(=O)CNC(=O)[C@H](CCC(=O)O)NC(=O)C(C)(C)NC(=O)[C@@H](N)Cc1c[nH]cn1)[C@@H](C)O)C(C)C)C(=O)N[C@@H](C)C(=O)N[C@@H](Cc1c[nH]c2ccccc12)C(=O)N[C@@H](CC(C)C)C(=O)N[C@H](C(=O)N[C@@H](CCCCN)C(=O)NCC(=O)N[C@@H](CCCNC(=N)N)C(N)=O)C(C)C [SEQ ID NO: 28, H-(Aib)^2-EG-(S)^5-FTSDV^10 SSYLE^15 GQAAK^20 EFIAW^25 LVKGR^30] | 102 | 0.00951 | 
CC[C@H](C)[C@H](NC(=O)[C@](C)(Cc1ccccc1)NC(=O)[C@H](CCC(=O)O)NC(=O)[C@H](CCCCN)NC(=O)[C@H](C)NC(=O)[C@H](C)NC(=O)[C@H](CCC(N)=O)NC(=O)CNC(=O)[C@H](CCC(=O)O)NC(=O)[C@H](CC(C)C)NC(=O)[C@](C)(Cc1ccccc1)NC(=O)[C@H](CO)NC(=O)[C@H](CO)NC(=O)[C@@H](NC(=O)[C@H](CC(=O)O)NC(=O)[C@H](CO)NC(=O)[C@@H](NC(=O)[C@](C)(Cc1ccccc1)NC(=O)[C@@H](NC(=O)CNC(=O)[C@H](CCC(=O)O)NC(=O)C(C)(C)NC(=O)[C@@H](N)Cc1c[nH]cn1)[C@@H](C)O)[C@@H](C)O)C(C)C)C(=O)N[C@@H](C)C(=O)N[C@@H](Cc1c[nH]c2ccccc12)C(=O)N[C@@H](CC(C)C)C(=O)N[C@H](C(=O)N[C@@H](CCCCN)C(=O)NCC(=O)N[C@@H](CCCNC(=N)N)C(N)=O)C(C)C [SEQ ID NO: 29, H-(Aib)^2-EGT^5-(α-MeF)^6-TSDV^10 SS-(α-MeF)^13-LE^15 GQAAK^20 E-(α-MeF)^22-IAW^25 LVKGR^30] (H-H[Aib]EGT[αMeF]TSDVSS[αMeF]LEGQAAKE[αMeF]IAWLVKGR-NH2) | 102 | 0.0126 | 
H-(Aib)^2-EG-(S)^5-(α-MeF)^6-TSDV^10 SS-(α-MeF)^13-LE^15 GQAAK^20 E-(α-MeF)^22-IA-(α-MeF)^25 LVKG-(G)^30-(SSG)3-(Cys-Mal-mPEG)[40 kD] (H[Aib]EGS[αMeF]TSDVSS[αMeF]LEGQAAKE[αMeF]IA[αMeF]LVKGGSSGSSGSSGC([Mal-mPEG 40 kDa]); not fully specified (C-terminus); printed as H-(Aib)^2-EG-(S)^5-(α-MeF)^6-TSDV^10 SS-(α-MeF)^13-LE^15 GQAAK^20 E-(α-MeF)^22-IA-(α-MeF)^25 LVKG-(G)^30-(SSG)3-(Cys-Mal-mPEG)[40 kD]) [SEQ ID NO: 50] |  |  | 0.0278

Second part, the compound after the results:

EC50 (hGIP-R) [nM] | EC50 (hGLP-1R) [nM] | EC50 (hGLP-1R; read-out: Primary assay EC50 (n = 2) hGLP-1R) [nM] | Compound
102 | 102 |  | CC[C@H](C)[C@H](NC(=O)C(C)(C)NC(=O)[C@H](CCC(=O)O)NC(=O)[C@H](CCCCN)NC(=O)[C@H](C)NC(=O)[C@H](C)NC(=O)[C@H](CCC(N)=O)NC(=O)CNC(=O)[C@H](CCC(=O)O)NC(=O)[C@H](CC(C)C)NC(=O)C(C)(C)NC(=O)[C@H](CO)NC(=O)[C@H](CO)NC(=O)[C@@H](NC(=O)[C@H](CC(=O)O)NC(=O)[C@H](CO)NC(=O)[C@@H](NC(=O)C(C)(C)NC(=O)[C@@H](NC(=O)CNC(=O)[C@H](CCC(=O)O)NC(=O)C(C)(C)NC(=O)[C@@H](N)Cc1c[nH]cn1)[C@@H](C)O)[C@@H](C)O)C(C)C)C(=O)N[C@@H](C)C(=O)NC(C)(C)C(=O)N[C@@H](CC(C)C)C(=O)N[C@H](C(=O)N[C@@H](CCCCN)C(=O)NCC(=O)N[C@@H](CCCNC(=N)N)C(N)=O)C(C)C [SEQ ID NO: 16, H-(Aib)^2-EGT^5-(Aib)^6-TSDV^10 SS-(Aib)^13-LE^15 GQAAK^20 E-(Aib)^22-IA-(Aib)^25 LVKGR^30] (H-H[Aib]EGT[Aib]TSDVSS[Aib]LEGQAAKE[Aib]IA[Aib]LVKGR-NH2)
102 | 3.48 |  | CCCC[C@H](NC(=O)[C@H](C)NC(=O)[C@@H](NC(=O)[C@H](CCCC)NC(=O)[C@H](CCC(=O)O)NC(=O)[C@H](CCCCN)NC(=O)[C@H](C)NC(=O)[C@H](C)NC(=O)[C@H](CCC(N)=O)NC(=O)CNC(=O)[C@H](CCC(=O)O)NC(=O)[C@H](CC(C)C)NC(=O)[C@H](CCCC)NC(=O)[C@H](CO)NC(=O)[C@H](CO)NC(=O)[C@@H](NC(=O)[C@H](CC(=O)O)NC(=O)[C@H](CO)NC(=O)[C@@H](NC(=O)[C@H](CCCC)NC(=O)[C@@H](NC(=O)CNC(=O)[C@H](CCC(=O)O)NC(=O)C(C)(C)NC(=O)[C@@H](N)Cc1c[nH]cn1)[C@@H](C)O)[C@@H](C)O)C(C)C)[C@@H](C)CC)C(=O)N[C@@H](CC(C)C)C(=O)N[C@H](C(=O)N[C@@H](CCCCN)C(=O)NCC(=O)N[C@@H](CCCNC(=N)N)C(N)=O)C(C)C [SEQ ID NO: 17, H-(Aib)^2-EGT^5-(Nle)^6-TSDV^10 SS-(Nle)^13-LE^15 GQAAK^20 E-(Nle)^22-IA-(Nle)^25 LVKGR^30] (H-H[Aib]EGT[Nle]TSDVSS[Nle]LEGQAAKE[Nle]IA[Nle]LVKGR-NH2)
102 | 0.0163 |  | CC[C@H](C)[C@H](NC(=O)[C@H](Cc1ccccc1)NC(=O)[C@H](CCC(=O)O)NC(=O)[C@H](CCCCN)NC(=O)[C@H](C)NC(=O)[C@H](C)NC(=O)[C@H](CCC(N)=O)NC(=O)CNC(=O)[C@H](CCC(=O)O)NC(=O)[C@H](CC(C)C)NC(=O)[C@H](Cc1ccccc1)NC(=O)[C@H](CO)NC(=O)[C@H](CO)NC(=O)[C@@H](NC(=O)[C@H](CC(=O)O)NC(=O)[C@H](CO)NC(=O)[C@@H](NC(=O)[C@H](Cc1ccccc1)NC(=O)[C@@H](NC(=O)CNC(=O)[C@H](CCC(=O)O)NC(=O)C(C)(C)NC(=O)[C@@H](N)Cc1c[nH]cn1)[C@@H](C)O)[C@@H](C)O)C(C)C)C(=O)N[C@@H](C)C(=O)N[C@@H](Cc1ccccc1)C(=O)N[C@@H](CC(C)C)C(=O)N[C@H](C(=O)N[C@@H](CCCCN)C(=O)NCC(=O)N[C@@H](CCCNC(=N)N)C(N)=O)C(C)C [SEQ ID NO: 18, H-(Aib)^2-EGT^5-FTSDV^10 SS-(F)^13-LE^15 GQAAK^20 EFIA-(F)^25 LVKGR^30] (H-H[Aib]EGTFTSDVSSFLEGQAAKEFIAFLVKGR-NH2)
